# Patent US20080280920A1, “Plasminogen Activator Inhibitor-1 Inhibitors” (priority 2005, published 2008)
# Experiments:
# Format in all cases: cell-based, human
# IGR-OV1 = test: NCI anticancer screen, IGR-OV1; settings: IGR-OV1, Ovarian, 48 h
# SW-620 = test: NCI anticancer screen, SW-620; settings: SW-620, Colon, 48 h
# SNB-19 = test: NCI anticancer screen, SNB-19; settings: SNB-19, CNS, 48 h
# MCF7 = test: NCI anticancer screen, MCF7; settings: MCF7, Breast, 48 h
# BT-549 = test: NCI anticancer screen, BT-549; settings: BT-549, Breast, 48 h
# NCI/ADR-RES = test: NCI anticancer screen, NCI/ADR-RES; settings: Breast, 48 h
# KM12 = test: NCI anticancer screen, KM12; settings: KM12, Colon, 48 h
# OVCAR-5 = test: NCI anticancer screen, OVCAR-5; settings: OVCAR-5, Ovarian, 48 h
# UACC-257 = test: NCI anticancer screen, UACC-257; settings: Homo sapiens; UACC-257, Melanoma, 48 h
# K-562 = test: NCI anticancer screen, K-562; settings: K-562, Leukemia, 48 h
# PC-3 = test: NCI anticancer screen, PC-3; settings: PC-3, Prostate, 48 h
# MALME-3M = test: NCI anticancer screen, MALME-3M; settings: Melanoma, 48 h
# NCI-H522 = test: NCI anticancer screen, NCI-H522; settings: NCI-H522, Non-Small Cell Lung, 48 h
# SR = test: NCI anticancer screen, SR; settings: Leukemia, 48 h
# SK-OV-3 = test: NCI anticancer screen, SK-OV-3; settings: SK-OV-3, Ovarian, 48 h
# OVCAR-3 = test: NCI anticancer screen, OVCAR-3; settings: OVCAR-3, Ovarian, 48 h
# HOP-92 = test: NCI anticancer screen, HOP-92; settings: HOP-92, Non-Small Cell Lung, 48 h
# M14 = test: NCI anticancer screen, M14; settings: M14, Melanoma, 48 h
# HS 578T = test: NCI anticancer screen, HS 578T; settings: Breast, 48 h
# SNB-75 = test: NCI anticancer screen, SNB-75; settings: SNB-75, CNS, 48 h
# HT29 = test: NCI anticancer screen, HT29; settings: HT29, Colon, 48 h
# NCI-H460 = test: NCI anticancer screen, NCI-H460; settings: NCI-H460, Non-Small Cell Lung, 48 h
# MOLT-4 = test: NCI anticancer screen, MOLT-4; settings: MOLT-4, Leukemia, 48 h
# CAKI-1 = test: NCI anticancer screen, CAKI-1; settings: CAKI-1, Renal, 48 h
# HCC-2998 = test: NCI anticancer screen, HCC-2998; settings: HCC-2998, Colon, 48 h
# HCT-15 = test: NCI anticancer screen, HCT-15; settings: HCT-15, Colon, 48 h
# OVCAR-4 = test: NCI anticancer screen, OVCAR-4; settings: OVCAR-4, Ovarian, 48 h
# OVCAR-8 = test: NCI anticancer screen, OVCAR-8; settings: OVCAR-8, Ovarian, 48 h
# SN12C = test: NCI anticancer screen, SN12C; settings: 48 h, Renal
# UO-31 = test: NCI anticancer screen, UO-31; settings: UO-31, Renal, 48 h
# A549/ATCC = test: NCI anticancer screen, A549/ATCC; settings: Non-Small Cell Lung, 48 h
# SF-268 = test: NCI anticancer screen, SF-268; settings: SF-268, CNS, 48 h
# 786-0 = test: NCI anticancer screen, 786-0; settings: 786-0, Renal, 48 h
# A498 = test: NCI anticancer screen, A498; settings: A498, Renal, 48 h
# [1] = Homo sapiens, read-out: LC50 (the source's name)
smiles,measurement,setting,value
CCOC(=O)[C@H](Cc1ccccc1)NCc1cc(CN2CCN(c3ccccn3)CC2)c(O)c(OC)c1 [Compound Q012147T],GI50,"IGR-OV1; Homo sapiens, IGROV-1",> 100 µM
same,GI50,SW-620; Homo sapiens,> 100 µM
same,GI50,SNB-19; Homo sapiens,> 100 µM
same,GI50,MCF7; Homo sapiens,88.8 µM
same,GI50,BT-549; Homo sapiens,67.5 µM
same,GI50,NCI/ADR-RES; Homo sapiens,> 100 µM
same,GI50,KM12; Homo sapiens,> 100 µM
same,GI50,OVCAR-5; Homo sapiens,> 100 µM
same,GI50,UACC-257,67.3 µM
same,GI50,"K-562; Homo sapiens, K562",49.3 µM
same,GI50,PC-3; Homo sapiens,49.8 µM
same,GI50,MALME-3M; Homo sapiens,99.9 µM
same,GI50,NCI-H522; Homo sapiens,76.3 µM
same,GI50,SR; Homo sapiens,0.32 µM
same,GI50,SK-OV-3; Homo sapiens,> 100 µM
same,GI50,OVCAR-3; Homo sapiens,86.2 µM
same,GI50,HOP-92; Homo sapiens,24.8 µM
same,GI50,M14; Homo sapiens,99 µM
same,GI50,HS 578T; Homo sapiens,48.3 µM
same,GI50,SNB-75; Homo sapiens,56.6 µM
same,GI50,"HT29; Homo sapiens, HT-29",43.2 µM
same,GI50,NCI-H460; Homo sapiens,60.6 µM
same,GI50,MOLT-4; Homo sapiens,3.13 µM
same,GI50,CAKI-1; Homo sapiens,> 100 µM
same,GI50,HCC-2998; Homo sapiens,> 100 µM
same,GI50,HCT-15; Homo sapiens,98.3 µM
same,GI50,OVCAR-4; Homo sapiens,70.2 µM
same,GI50,OVCAR-8; Homo sapiens,> 100 µM
same,GI50,SN12C; Homo sapiens,> 100 µM
same,GI50,UO-31; Homo sapiens,94.1 µM
same,GI50,A549/ATCC; Homo sapiens,> 100 µM
same,GI50,SF-268; Homo sapiens,> 100 µM
same,GI50,786-0; Homo sapiens,60.2 µM
same,GI50,A498; Homo sapiens,> 100 µM
CCOC(=O)c1ccc(CNCc2cc(CN3CCN(c4ccccn4)CC3)c(O)c(OC)c2)cc1 [Compound Q012135T],GI50,"IGR-OV1; Homo sapiens, IGROV-1",14.7 µM
same,CC50,"IGR-OV1; Homo sapiens, IGROV-1, read-out: LC50 (the source's name)",> 100 µM
same,TGI,IGR-OV1,43.4 µM
same,GI50,SW-620; Homo sapiens,18.5 µM
same,CC50,SW-620; [1],68 µM
same,TGI,SW-620,35.5 µM
same,GI50,SNB-19; Homo sapiens,33.1 µM
same,CC50,SNB-19; [1],> 100 µM
same,TGI,SNB-19,>100 µM
same,GI50,MCF7; Homo sapiens,16.3 µM
same,CC50,MCF7; [1],69.9 µM
same,TGI,MCF7,33.7 µM
same,TGI,BT-549,30.0 µM
same,GI50,BT-549; Homo sapiens,15.5 µM
same,CC50,BT-549; [1],58 µM
same,TGI,NCI/ADR-RES,96.9 µM
same,GI50,NCI/ADR-RES; Homo sapiens,27.6 µM
same,CC50,NCI/ADR-RES; [1],> 100 µM
same,GI50,KM12; Homo sapiens,21 µM
same,CC50,KM12; [1],73.3 µM
same,TGI,KM12,39.2 µM
same,GI50,OVCAR-5; Homo sapiens,23.4 µM
same,CC50,OVCAR-5; [1],91.7 µM
same,TGI,OVCAR-5,46.3 µM
same,GI50,"K-562; Homo sapiens, K562",3.4 µM
same,CC50,"K-562; Homo sapiens, K562, read-out: LC50 (the source's name)",3.4 µM
same,TGI,K-562,14.1 µM
same,GI50,PC-3; Homo sapiens,17.9 µM
same,CC50,PC-3; [1],> 100 µM
same,TGI,PC-3,45.4 µM
same,GI50,MALME-3M; Homo sapiens,20.1 µM
same,CC50,MALME-3M; [1],74.1 µM
same,TGI,MALME-3M,38.6 µM
same,GI50,NCI-H522; Homo sapiens,15.5 µM
same,LC50 (concentration killing 50% of cells),NCI-H522; Homo sapiens,81.7 µM
same,TGI,NCI-H522,35.6 µM
same,GI50,SR; Homo sapiens,4.18 µM
same,CC50,SR; [1],4.18 µM
same,TGI,SR,20.6 µM
same,GI50,SK-OV-3; Homo sapiens,24.9 µM
same,CC50,SK-OV-3; [1],> 100 µM
same,TGI,SK-OV-3,56.7 µM
same,GI50,OVCAR-3; Homo sapiens,14.1 µM
same,CC50,OVCAR-3; [1],61.2 µM
same,TGI,OVCAR-3,29.4 µM
same,TGI,HOP-92,31.8 µM
same,GI50,HOP-92; Homo sapiens,12.8 µM
same,LC50 (concentration killing 50% of starting cells),HOP-92; Homo sapiens,79.1 µM
same,GI50,M14; Homo sapiens,17.2 µM
same,CC50,M14; [1],64.8 µM
same,TGI,M14,33.4 µM
same,TGI,HS 578T,41.7 µM
same,GI50,HS 578T; Homo sapiens,19.1 µM
same,CC50,HS 578T; [1],90.9 µM
same,GI50,SNB-75; Homo sapiens,17.6 µM
same,LC50 (concentration killing 50% of cells),SNB-75; Homo sapiens,59.2 µM
same,TGI,SNB-75,32.2 µM
same,TGI,HT29,31.8 µM
same,GI50,"HT29; Homo sapiens, HT-29",17.1 µM
same,CC50,"HT29; Homo sapiens, HT-29, read-out: LC50 (the source's name)",59 µM
same,GI50,NCI-H460; Homo sapiens,20.2 µM
same,CC50,NCI-H460; [1],70.4 µM
same,TGI,NCI-H460,37.7 µM
same,GI50,MOLT-4; Homo sapiens,10.1 µM
same,CC50,MOLT-4; [1],10.1 µM
same,TGI,MOLT-4,31.3 µM
same,TGI,CAKI-1,44.0 µM
same,GI50,CAKI-1; Homo sapiens,17.2 µM
same,CC50,CAKI-1; [1],> 100 µM
same,TGI,HCC-2998,31.6 µM
same,GI50,HCC-2998; Homo sapiens,15.3 µM
same,LC50,HCC-2998; Homo sapiens,65.1 µM
same,TGI,HCT-15,>100 µM
same,GI50,HCT-15; Homo sapiens,26.9 µM
same,CC50,HCT-15; [1],> 100 µM
same,GI50,OVCAR-4; Homo sapiens,18.6 µM
same,CC50,OVCAR-4; [1],98 µM
same,TGI,OVCAR-4,42.7 µM
same,GI50,OVCAR-8; Homo sapiens,22.1 µM
same,CC50,OVCAR-8; [1],> 100 µM
same,TGI,OVCAR-8,49.1 µM
same,GI50,SN12C; Homo sapiens,21.7 µM
same,CC50,SN12C; [1],> 100 µM
same,TGI,SN12C,55.7 µM
same,GI50,UO-31; Homo sapiens,11.5 µM
same,CC50,UO-31; [1],61.6 µM
same,TGI,UO-31,26.6 µM
same,GI50,A549/ATCC; Homo sapiens,36.9 µM
same,LC50,A549/ATCC; Homo sapiens,> 100 µM
same,TGI,A549/ATCC,>100 µM
same,GI50,SF-268; Homo sapiens,19.1 µM
same,LC50,SF-268; Homo sapiens,71.1 µM
same,TGI,SF-268,36.9 µM
same,TGI,786-0,31.0 µM
same,GI50,786-0; Homo sapiens,16.2 µM
same,CC50,786-0; [1],59.2 µM
same,TGI,A498,51.4 µM
same,GI50,A498; Homo sapiens,25.8 µM
same,CC50,A498; [1],> 100 µM
